Tests used:
Assay type in all cases: physicochemical
[1] = Cold Storage Test at -5° C., propachlor/linuron in trichloroethylene (Table I); conditions: for Max. Stable concentration (no crystallization) / Min. Unstable concentration (crystals first appear): total active ingredient
Source text: The temperature limits below which crystallization of solute will occur can be measured by storing samples in a controlled temperature chest, seeding with tiny crystals of pure materials and observing the growth or disappearance of crystals after a period of several days. If no crystals form, the process is then repeated at a lower temperature, until the limit of stability has been found. However, crystallization characteristics can be also meaningfully, rapidly and conveniently measured by a determination of the cloud point of the system.
(§1) Purified linuron, purified propachlor, purified alachlor and commercial "Triclene" (trichloroethylene, technical) are used in the procedure. Samples containing various ratios and concentrations of linuron, propachlor, and linuron-propachlor mixtures are placed in a cold chest. The temperature is lowered and samples are seeded with traces of dust of the active ingredients after the solution has been cooled to the test temperature of -5° C. The samples are then observed over the course of at least 3 to 4 days to determine whether crystallization has occurred. When the temperature of the system is maintained within the range of -4.5° to -5.0° C. for 4 days after seeding. The maximum solution concentration in grams of active ingredient per 100 grams of solvent, at which no crystallization occurs (Max. Stable), and the minimum solution concentration at which crystals first appear (Min. Unstable) are observed.

[2] = Cold Storage Test at 3° C. and at -8° to -9° C., alachlor/linuron (Table II); conditions: for Max. Stable concentration / Min. Unstable concentration: total active ingredient
Experimental: as §1
A similar test was run replacing propachlor with alachlor and at ^+ 3° C. and at -8° to -9° C. with the following results: […]

[3] = Amount of insoluble crystalline material after room temperature storage (Tables III, IV, V)
Experimental: Samples weighing 5 grams each total weight were prepared by mixing the indicated solids and liquids, in the indicated proportions and shaking in closed vials, which were sealed with epoxy cement to prevent evaporation.
Tables III, IV, and V show the proportions of each mixture and the amounts of insoluble, crystalline material observed in each case after room temperature storage: […]

| Compound | Max. Solubility Range, Linuron [1] | Max. Stable concentration (no crystallization) [1] [grams/100 grams Solvent] | Min. Unstable concentration (crystals first appear) [1] [grams/100 grams Solvent] | Max. Solubility Range For Linuron ([2]; 3° C.) | Max. Stable concentration ([2]; 3° C.) [grams/100 grams Solvent] | Min. Unstable concentration ([2]; 3° C.) [grams/100 grams Solvent] | Max. Solubility Range For Linuron ([2]; -8° to -9° C.) | Max. Stable concentration ([2]; -8° to -9° C.) [grams/100 grams Solvent] | Min. Unstable concentration ([2]; -8° to -9° C.) [grams/100 grams Solvent] | crystalline material ([3]; 5 weight % linuron, 95% tetrachloroethylene, room temperature) | crystalline material ([3]; 9 weight % linuron, 91% tetrachloroethylene, room temperature) | crystalline material ([3]; 9 weight % linuron, 91% xylene, room temperature) | crystalline material ([3]; 10 weight % linuron, 90% "Panasol" AN-3, room temperature) | crystalline material ([3]; 15 weight % linuron, 85% "Panasol" AN-3, room temperature) | crystalline material ([3]; 17 weight % linuron, 83% xylene, room temperature) | dissolution result on shaking in the solvent ([3]; hydrocarbons and halocarbons, room temperature) | Max. Solubility Range, Propachlor [1] | crystalline material ([3]; 18 weight % propachlor, 82% tetrachloroethylene, room temperature) | crystalline material ([3]; 30 weight % propachlor, 70% "Panasol" AN-3, room temperature) | crystalline material ([3]; 34 weight % propachlor, 66% xylene, room temperature) |
| --- | --- | --- | --- | --- | --- | --- | --- | --- | --- | --- | --- | --- | --- | --- | --- | --- | --- | --- | --- | --- |
| CON(C)C(=O)Nc1ccc(Cl)c(Cl)c1 [Linuron, 1-(3,4-dichlorophenyl)-3-methoxy-3-methylurea] | 4.1-5.2 grams/100 grams Solvent | 4.1 | 5.2 | 4.1-4.7 grams/100 grams Solvent | 4.1 | 4.7 | 3.6-4.1 grams/100 grams Solvent | 3.6 | 4.1 | moderate | heavy | slight | moderate | heavy | heavy | crystals remained | – | – | – | – |
| CC(C)N(C(=O)CCl)c1ccccc1 [Propachlor, 2-chloro-N-isopropylacetanilide] | – | 21.9 | 25 | – | – | – | – | – | – | – | – | – | – | – | – | – | 21.9-25 grams/100 grams Solvent | moderate | moderate | moderate |

— US4163662A, “Liquid formulations of 1-(3,4-dichlorophenyl)-3-methoxy-3-methylurea and selected chloroacetamides” (E. I. Du Pont de Nemours and Company, priority 1977, dated 1979)
